# US20210121383A1, “COMPOSITION FOR ANTI-AGING” (MORINAGA MILK INDUSTRY CO., LTD., priority 2018, published 2021)
# Tested on: HepG2 cells derived from liver cancer
# Test: Test 2: quantitative evaluation of autophagy activity (CYTO-ID/Hoechst 33342 fluorescence, microplate reader)
# Type: cell-based
# Details: 100 μM compound 1 or compound 2, 24 hours (positive control 500 nM rapamycin, 16 hours), then 10 μM chloroquine 6 hours; 3 wells per group
# Description: The active action of autophagy of the compound 1 or the compound 2 observed in Test 1 was quantitatively detected.
# HepG2 cells derived from liver cancer in 2.5×10^4 cells were plated in a 96-well plate (manufactured by Falcon), and the culture was performed for 24 hours in DMEM containing 10% FBS under the conditions of 37° C. and a CO2 concentration of 5%. After that, the cells were cultured for 24 hours by using a medium for testing prepared in (1-1) of (1) in Test 1. Further, the culture was performed in a similar manner as in Test 1 also in the negative control and the positive control. […]
# Into each well, 100 μL of an assay buffer attached to a kit (manufactured by Enzo Life Sciences, Inc.) was added, and the fluorescence intensity was measured by using a fluorescence microplate reader, SH-9000 (manufactured by CORONA ELECTRIC Co., Ltd.). The fluorescence derived from the fluorescent probe for autophagy detection was measured under the conditions of an excitation filter of 480 nm and a fluorescence filter of 530 nm. Further, the fluorescence derived from each staining reagent was measured under the conditions of an excitation filter of 340 nm and a fluorescence filter of 480 nm.
# Results of the fluorescence intensity of the cells exposed to a compound 1 or a compound 2, which was measured by a fluorescence microplate reader, are shown in Table 1. […]
smiles,measurement,value
"CO[C@H]1C[C@@H]2CC[C@@H](C)[C@@](O)(O2)C(=O)C(=O)N2CCCC[C@H]2C(=O)O[C@H]([C@H](C)C[C@@H]2CC[C@@H](O)[C@H](OC)C2)CC(=O)[C@H](C)/C=C(\C)[C@@H](O)[C@@H](OC)C(=O)[C@H](C)C[C@H](C)/C=C/C=C/C=C/1C [Positive control, rapamycin]",Autophagy induction (CYTO-ID fluorescence intensity/Hoechst 33342 fluorescence intensity),93
